Results published in patent US9738634B2, “Heterocyclic amide compound and herbicide” (SYNGENTA PARTICIPATIONS AG, priority 2013, dated 2017).

Experiments:
Type in all cases: in vivo
Conditions in all cases: treatment dosage 320 g/ha
Indian mallow [1] = experiment: Test Example 4: weedkilling efficacy by foliar treatment; K: Indian mallow
Summary of the method: (§1)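 Seeds are spot-sown into sterilized diluvial soil and covered with about 1.5 cm of soil. After 14 days' greenhouse growth at 25 to 30° C, plants are sprayed on stems and leaves with diluted emulsion at the stated g/ha rate, then scored at 3 weeks.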

crabgrass [2] = experiment: Test Example 4: weedkilling efficacy by foliar treatment; D: crabgrass
Summary of the method: as §1

fig-leafed goosefoot [3] = experiment: Test Example 4: weedkilling efficacy by foliar treatment; M: fig-leafed goosefoot
Summary of the method: as §1

wild oat [4] = experiment: Test Example 3: weedkilling efficacy through soil treatment; G: wild oat
Summary of the method: (§2)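 Crop and weed responses were judged three weeks after a uniform surface spray of the water-diluted emulsion at the given g/ha rate. Seeds sat beneath about 1.5 cm of sterilized diluvial soil, and boxes stood in a greenhouse at 25 to 30° C.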

common wind-grass [5] = experiment: Test Example 3: weedkilling efficacy through soil treatment; J: common wind-grass
Summary of the method: as §2

Italian ryegrass [6] = experiment: Test Example 4: weedkilling efficacy by foliar treatment; I: Italian ryegrass
Summary of the method: as §1

wheat [7] = experiment: Test Example 4: foliar treatment, effect on crop; e: wheat
Summary of the method: as §1

crabgrass [8] = experiment: Test Example 3: weedkilling efficacy through soil treatment; D: crabgrass
Summary of the method: as §2

transplanted rice = experiment: Test Example 1: preemergent weed treatment in the submerged state, effect on crop; a: transplanted rice
Summary of the method: (§3)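 Pre-emergence application onto floodwater (4 cm, alluvial soil) on the day of sowing, dose expressed as g/ha from diluted emulsion formulation. Weeds sown with 2.5-leaf transplanted rice as crop; plants held at 25–30 °C in greenhouse and scored against assessment criteria after 3 weeks.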

directly sown rice [9] = experiment: Test Example 3: soil treatment, effect on crop; b: directly sown rice
Summary of the method: as §2

barnyard grass [10] = experiment: Test Example 3: weedkilling efficacy through soil treatment; F: barnyard grass
Summary of the method: as §2

Italian ryegrass [11] = experiment: Test Example 3: weedkilling efficacy through soil treatment; I: Italian ryegrass
Summary of the method: as §2

catchweed [12] = experiment: Test Example 4: weedkilling efficacy by foliar treatment; O: catchweed
Summary of the method: as §1

oval-leafed pondweed [13] = experiment: Test Example 2: weedkilling efficacy, growth period weed treatment in the submerged state; C: oval-leafed pondweed
Summary of the method: (§4)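 Weeds treated at the 1-2 leaf stage by application of diluted emulsion onto floodwater (4 cm depth, alluvial soil) at specified g/ha. Grown in greenhouse at 25 to 30° C; herbicidal effect rated three weeks after treatment.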

black-grass [14] = experiment: Test Example 3: weedkilling efficacy through soil treatment; H: black-grass
Summary of the method: as §2

beet [15] = experiment: Test Example 4: foliar treatment, effect on crop; f: beet
Summary of the method: as §1

Indian mallow [16] = experiment: Test Example 3: weedkilling efficacy through soil treatment; K: Indian mallow
Summary of the method: as §2

barnyard grass [17] = experiment: Test Example 4: weedkilling efficacy by foliar treatment; F: barnyard grass
Summary of the method: as §1

redroot pigweed [18] = experiment: Test Example 4: weedkilling efficacy by foliar treatment; L: redroot pigweed
Summary of the method: as §1

chickweed [19] = experiment: Test Example 3: weedkilling efficacy through soil treatment; N: chickweed
Summary of the method: as §2

green foxtail [20] = experiment: Test Example 4: weedkilling efficacy by foliar treatment; E: green foxtail
Summary of the method: as §1

corn [21] = experiment: Test Example 4: foliar treatment, effect on crop; c: corn
Summary of the method: as §1

beet [22] = experiment: Test Example 3: soil treatment, effect on crop; f: beet
Summary of the method: as §2

birds-eye speedwell [23] = experiment: Test Example 4: weedkilling efficacy by foliar treatment; p: birds-eye speedwell
Summary of the method: as §1

wheat [24] = experiment: Test Example 3: soil treatment, effect on crop; e: wheat
Summary of the method: as §2

soybean [25] = experiment: Test Example 3: soil treatment, effect on crop; d: soybean
Summary of the method: as §2

birds-eye speedwell [26] = experiment: Test Example 3: weedkilling efficacy through soil treatment; p: birds-eye speedwell
Summary of the method: as §2

common wind-grass [27] = experiment: Test Example 4: weedkilling efficacy by foliar treatment; J: common wind-grass
Summary of the method: as §1

green foxtail [28] = experiment: Test Example 3: weedkilling efficacy through soil treatment; E: green foxtail
Summary of the method: as §2

fig-leafed goosefoot [29] = experiment: Test Example 3: weedkilling efficacy through soil treatment; M: fig-leafed goosefoot
Summary of the method: as §2

rapeseed [30] = experiment: Test Example 3: soil treatment, effect on crop; g: rapeseed
Summary of the method: as §2

black-grass [31] = experiment: Test Example 4: weedkilling efficacy by foliar treatment; H: black-grass
Summary of the method: as §1

barnyard grass [32] = experiment: Test Example 1: weedkilling efficacy, preemergent weed treatment in the submerged state; A: barnyard grass
Summary of the method: as §3

wild oat [33] = experiment: Test Example 4: weedkilling efficacy by foliar treatment; G: wild oat
Summary of the method: as §1

barnyard grass [34] = experiment: Test Example 2: weedkilling efficacy, growth period weed treatment in the submerged state; A: barnyard grass
Summary of the method: as §4

corn [35] = experiment: Test Example 3: soil treatment, effect on crop; c: corn
Summary of the method: as §2

rapeseed [36] = experiment: Test Example 4: foliar treatment, effect on crop; g: rapeseed
Summary of the method: as §1

directly sown rice [37] = experiment: Test Example 4: foliar treatment, effect on crop; b: directly sown rice
Summary of the method: as §1

bulrush [38] = experiment: Test Example 1: weedkilling efficacy, preemergent weed treatment in the submerged state; B: bulrush
Summary of the method: as §3

redroot pigweed [39] = experiment: Test Example 3: weedkilling efficacy through soil treatment; L: redroot pigweed
Summary of the method: as §2

catchweed [40] = experiment: Test Example 3: weedkilling efficacy through soil treatment; O: catchweed
Summary of the method: as §2

soybean [41] = experiment: Test Example 4: foliar treatment, effect on crop; d: soybean
Summary of the method: as §1

bulrush [42] = experiment: Test Example 2: weedkilling efficacy, growth period weed treatment in the submerged state; B: bulrush
Summary of the method: as §4

chickweed [43] = experiment: Test Example 4: weedkilling efficacy by foliar treatment; N: chickweed
Summary of the method: as §1

oval-leafed pondweed [44] = experiment: Test Example 1: weedkilling efficacy, preemergent weed treatment in the submerged state; C: oval-leafed pondweed
Summary of the method: as §3

With `COc1cc(C(F)(F)F)cc(NC(=O)C(C)(C)N2COC(C)=C(c3cccnc3F)C2=O)n1` [B-2-14] the “K (Indian mallow) weedkilling efficacy grade” value (Indian mallow [1]) was 5 (weed kill ratio 90% or more, (practically complete withering)), the “D (crabgrass) weedkilling efficacy grade” value (crabgrass [2]) was 4 (weed kill ratio 70% or more, less than 90%) and the “M (fig-leafed goosefoot) weedkilling efficacy grade” value (fig-leafed goosefoot [3]) was 4 (weed kill ratio 70% or more, less than 90%). The “G (wild oat) weedkilling efficacy grade” value (wild oat [4]) was 5 (weed kill ratio 90% or more, (practically complete withering)), the “J (common wind-grass) weedkilling efficacy grade” value (common wind-grass [5]) was 5 (weed kill ratio 90% or more, (practically complete withering)) and the “I (Italian ryegrass) weedkilling efficacy grade” value (Italian ryegrass [6]) was 5 (weed kill ratio 90% or more, (practically complete withering)). The “e (wheat) effect on crop grade” value (wheat [7]) was 0 (weed kill ratio 5% or less (practically no effect)), the “D (crabgrass) weedkilling efficacy grade” value (crabgrass [8]) was 5 (weed kill ratio 90% or more, (practically complete withering)) and the “a (transplanted rice) effect on crop grade” value (transplanted rice) was 3 (weed kill ratio 40% or more, less than 70%). For the same molecule, the “b (directly sown rice) effect on crop grade” value (directly sown rice [9]) was 4 (weed kill ratio 70% or more, less than 90%), the “F (barnyard grass) weedkilling efficacy grade” value (barnyard grass [10]) was 5 (weed kill ratio 90% or more, (practically complete withering)) and the “I (Italian ryegrass) weedkilling efficacy grade” value (Italian ryegrass [11]) was 5 (weed kill ratio 90% or more, (practically complete withering)). For the same molecule, the “O (catchweed) weedkilling efficacy grade” value (catchweed [12]) was 4 (weed kill ratio 70% or more, less than 90%), the “C (oval-leafed pondweed) weedkilling efficacy grade” value (oval-leafed pondweed [13]) was 4 (weed kill ratio 70% or more, less than 90%) and the “H (black-grass) weedkilling efficacy grade” value (black-grass [14]) was 5 (weed kill ratio 90% or more, (practically complete withering)). For the same molecule, the “f (beet) effect on crop grade” value (beet [15]) was 3 (weed kill ratio 40% or more, less than 70%), the “K (Indian mallow) weedkilling efficacy grade” value (Indian mallow [16]) was 0 (weed kill ratio 5% or less (practically no effect)) and the “F (barnyard grass) weedkilling efficacy grade” value (barnyard grass [17]) was 4 (weed kill ratio 70% or more, less than 90%). The “L (redroot pigweed) weedkilling efficacy grade” value (redroot pigweed [18]) was 4 (weed kill ratio 70% or more, less than 90%), the “N (chickweed) weedkilling efficacy grade” value (chickweed [19]) was 3 (weed kill ratio 40% or more, less than 70%) and the “E (green foxtail) weedkilling efficacy grade” value (green foxtail [20]) was 5 (weed kill ratio 90% or more, (practically complete withering)). The “c (corn) effect on crop grade” value (corn [21]) was 3 (weed kill ratio 40% or more, less than 70%), the “f (beet) effect on crop grade” value (beet [22]) was 3 (weed kill ratio 40% or more, less than 70%) and the “P (birds-eye speedwell) weedkilling efficacy grade” value (birds-eye speedwell [23]) was 4 (weed kill ratio 70% or more, less than 90%). The “e (wheat) effect on crop grade” value (wheat [24]) was 0 (weed kill ratio 5% or less (practically no effect)), the “d (soybean) effect on crop grade” value (soybean [25]) was 0 (weed kill ratio 5% or less (practically no effect)) and the “P (birds-eye speedwell) weedkilling efficacy grade” value (birds-eye speedwell [26]) was 4 (weed kill ratio 70% or more, less than 90%). The “J (common wind-grass) weedkilling efficacy grade” value (common wind-grass [27]) was 5 (weed kill ratio 90% or more, (practically complete withering)), the “E (green foxtail) weedkilling efficacy grade” value (green foxtail [28]) was 5 (weed kill ratio 90% or more, (practically complete withering)) and the “M (fig-leafed goosefoot) weedkilling efficacy grade” value (fig-leafed goosefoot [29]) was 3 (weed kill ratio 40% or more, less than 70%). The “g (rapeseed) effect on crop grade” value (rapeseed [30]) was 1 (weed kill ratio 5% or more, less than 20%), the “H (black-grass) weedkilling efficacy grade” value (black-grass [31]) was 5 (weed kill ratio 90% or more, (practically complete withering)) and the “A (barnyard grass) weedkilling efficacy grade” value (barnyard grass [32]) was 5 (weed kill ratio 90% or more, (practically complete withering)). For the same molecule, the “G (wild oat) weedkilling efficacy grade” value (wild oat [33]) was 4 (weed kill ratio 70% or more, less than 90%), the “A (barnyard grass) weedkilling efficacy grade” value (barnyard grass [34]) was 4 (weed kill ratio 70% or more, less than 90%) and the “c (corn) effect on crop grade” value (corn [35]) was 0 (weed kill ratio 5% or less (practically no effect)). The “g (rapeseed) effect on crop grade” value (rapeseed [36]) was 4 (weed kill ratio 70% or more, less than 90%), the “b (directly sown rice) effect on crop grade” value (directly sown rice [37]) was 3 (weed kill ratio 40% or more, less than 70%) and the “B (bulrush) weedkilling efficacy grade” value (bulrush [38]) was 5 (weed kill ratio 90% or more, (practically complete withering)). The “L (redroot pigweed) weedkilling efficacy grade” value (redroot pigweed [39]) was 3 (weed kill ratio 40% or more, less than 70%), the “O (catchweed) weedkilling efficacy grade” value (catchweed [40]) was 4 (weed kill ratio 70% or more, less than 90%) and the “d (soybean) effect on crop grade” value (soybean [41]) was 3 (weed kill ratio 40% or more, less than 70%). The “B (bulrush) weedkilling efficacy grade” value (bulrush [42]) was 4 (weed kill ratio 70% or more, less than 90%), the “N (chickweed) weedkilling efficacy grade” value (chickweed [43]) was 4 (weed kill ratio 70% or more, less than 90%) and the “C (oval-leafed pondweed) weedkilling efficacy grade” value (oval-leafed pondweed [44]) was 4 (weed kill ratio 70% or more, less than 90%).
